From patent publication EP3381906A1, “COMPOUNDS FOR USE AS HEPARANASE INHIBITORS” (Leadiant Biosciences SA, priority 2017, dated 2018)
pEC50: −log10 of the molar value.

What was measured:
[1] = tested on: HPSE-1; assay: Real-Time Quantitative PCR of pro-angiogenic genes in HT1080 cells; assay type: cell-based, human; conditions: 24 h, Conc 10.0 uM
Protocol: To evaluate the effect of heparanase inhibitors on the tumor transcription of genes encoding for proangiogenic factors, such as FGF1/2, VEGF, MMP-9, HSPE-1, the relative mRNA levels were analyzed by quantitative Real-Time Quantitative PCR. To perform the assay, HT1080 (human fibrosarcoma) cells were cultured in complete medium containing 10%FCS (fetal calf serum). Cells were plated in 24-well plates and treated at fixed concentration (i.e., highest non-toxic concentration) of test compounds. After 24 h, cells were detached, collected and total RNA extracted by RNeasy Mini Kit (QIAGEN). Following reverse transcription step, FGF1/2, VEGF, MMP-9, HSPE-1 mRNA levels, were quantified by qPCR using the advanced Universal SYBR Green Supermix (Bio Rad) and ABI PRISM 7900HT Thermal Cycler System (Perkin Elmer), according to the manufacturer's instructions. […] Relative levels of RNA were calculated using the ddCt method. Standard curve and sample data were run in duplicate.

[2] = tested on: HT1080 (human fibrosarcoma); assay: Matrigel cell invasion assay; assay type: cell-based; conditions: HT-1080, HT1080, Conc. 10 µM
Protocol: Heparanase inhibitors were then evaluated for their activity on the invasive potential of HT1080 (human fibrosarcoma) human cell lines, using the Matrigel cell invasion assay which allows to assess the cell invasion ability of malignant and normal cells.
Invasion assay was performed using BioCoat cell culture inserts (BioCoat 8.0µm PET Membrane 24 Well Permeable Supports, Corning). Filters were coated with 100 µl of 300 µg/ml Matrigel dissolved in coating buffer (0.01M Tris pH 8.0, 0.7% NaCl) (Becton-Dickinson Sciences). DMEM (Dulbecco's Modified Eagle's Medium) containing 5% FBS was added to the lower chambers. Cells were pre-treated with heparanase inhibitors for 24 h, detached and added to the upper chambers in media containing the inhibitors. Cells were allowed to invade for 24 h at 37°C in a CO2 incubator and then unmigrated cells were removed from the upper chamber with a cotton swab. The invading cells were fixed, stained with 0.1% crystal violet for 10 min at room temperature, photographed and counted under inverted microscope.
Test compounds were analyzed at fixed concentration for several fields, in duplicates. Activity of test compounds was compared to the reference compound. Activity of most interesting compound was confirmed in a second cell invasion assay. Data were expressed as the percent invasion with respect to cell migration through uncoated insert membrane. (Table 5)

[3] = tested on: U2OS (human osteosarcoma); assay: SRB Cell Cytotoxicity Assay; assay type: cell-based; conditions: treated for 72h, read-out: Concentration of test compounds at which the cell growth is inhibited by 50 % U2OS
Source text: (§1) SRB Cell Cytotoxicity Assay is an assay based upon the quantitative staining of cellular proteins by sulforhodamine B (SRB). This assay can be used for high-throughput drug screening (Vichai & Kirkitara, Nature Protocol. 2006, 1, 112). Sulforhodamine B is an anionic aminoxanthene dye that forms an electrostatic complex with the basic amino acid residues of proteins under moderately acid conditions, which provides a sensitive linear response.
(§2) To assess a putative antiproliferative activity of the selected compounds, HT1080 (human fibrosarcoma), U87MG (human glioblastoma astrocytoma) and U2OS (human osteosarcoma) cell lines were treated for 72h, in triplicate, with increasing concentrations of heparanase inhibitors. Inhibition of cell proliferation was then measured by the classical colorimetric SRB Cell Cytotoxicity assay. Absorbance was measured by spectrophotometer at a wavelength of 510 nm and cell proliferation was determined as percent with respect to control cells (cells treated with the vehicle alone). EC50 values were then determined by GraphPad Prism.

[4] = tested on: U87MG (human glioblastoma astrocytoma); assay: SRB Cell Cytotoxicity Assay; assay type: cell-based; conditions: U-87 MG, treated for 72h, read-out: Concentration of test compounds at which the cell growth is inhibited by 50 % U87MG
Source text: as §1, §2

[5] = tested on: HT1080 (human fibrosarcoma); assay: SRB Cell Cytotoxicity Assay; assay type: cell-based; conditions: HT-1080, HT1080, treated for 72h, read-out: Concentration of test compounds at which the cell growth is inhibited by 50 % HT1080
Source text: as §1, §2

[6] = tested on: U87MG; assay: Matrigel cell invasion assay; assay type: cell-based, human; conditions: Homo sapiens, U-87 MG, Conc. 10 µM
[7] = tested on: U87MG; assay: Cell adhesion assay on matrigel coated wells; assay type: cell-based, human; conditions: Conc. 10 µM, percent of adhesion with respect to the control (100%)
[8] = tested on: HT1080 (human fibrosarcoma); assay: Cell adhesion assay on matrigel coated wells; assay type: cell-based; conditions: HT1080, Conc. 10 µM; percent of adhesion with respect to the control (100%)
Protocol: Cell surface, non-integrin molecules such as heparan sulfate proteoglycans (HSPGs) may be involved in the regulation of early adhesive stages of cell-ECM interactions. A cell adhesion assay has been employed to determine if the newly designed heparanase inhibitors were able to interfere with adhesion properties of cancer cells.
HT1080 (human fibrosarcoma) cells were treated for 18-20 h with test compounds in complete medium supplemented with 10% FCS. Then cells were collected, washed in complete medium, and added to matrigel coated wells in triplicate, at previously identified optimal seeding density, and incubated at 37 °C in complete medium for times ranging from 15 minutes to 4h, according to the cell line. After incubation, the wells were washed three times with serum-free medium and the remaining firmly attached cells were stained with crystal-violet 0.1%. Optical density was measured at 560 nm by Victor 3 (Perkin-Elmer) plate analyzer. Each experiment was repeated three times.

[9] = tested on: FGF-2; assay: Real-Time Quantitative PCR of pro-angiogenic genes in HT1080 cells; assay type: cell-based, human; conditions: 24 h, Conc 10.0 uM
Protocol: (§3) To evaluate the effect of heparanase inhibitors on the tumor transcription of genes encoding for proangiogenic factors, such as FGF1/2, VEGF, MMP-9, HSPE-1, the relative mRNA levels were analyzed by quantitative Real-Time Quantitative PCR. To perform the assay, HT1080 (human fibrosarcoma) cells were cultured in complete medium containing 10%FCS (fetal calf serum). Cells were plated in 24-well plates and treated at fixed concentration (i.e., highest non-toxic concentration) of test compounds. After 24 h, cells were detached, collected and total RNA extracted by RNeasy Mini Kit (QIAGEN). Following reverse transcription step, FGF1/2, VEGF, MMP-9, HSPE-1 mRNA levels, were quantified by qPCR using the advanced Universal SYBR Green Supermix (Bio Rad) and ABI PRISM 7900HT Thermal Cycler System (Perkin Elmer), according to the manufacturer's instructions. Appropriate no-RT and non-template controls were included in each 96-well PCR reaction, and dissociation analysis was performed at the end of each run to confirm the specificity of the reaction. Relative levels of RNA were calculated using the ddCt method. Standard curve and sample data were run in duplicate. In the Table a mean value is reported.

[10] = tested on: VEGF; assay: as above; assay type: cell-based, human; conditions: 24 h, Conc 10.0 uM
Protocol: as §3

[11] = tested on: MMP-9; assay: as above; assay type: cell-based, human; conditions: 24 h, Conc 10.0 uM
Protocol: as §3

[12] = tested on: FGF-1; assay: as above; assay type: cell-based, human; conditions: 24 h, Conc 10.0 uM
Protocol: as §3

[13] = tested on: U2OS; assay: Matrigel cell invasion assay; assay type: cell-based, human; parameters: key to Invasion Assay Inhibition (%) U2OS: +++: > 90%; ++: 50-90 %; +: < 50%; -: Not active; conditions: Conc. 10 µM

COc1cc(N=Nc2cc(S(=O)(=O)O)cc3cc(S(=O)(=O)O)cc(O)c23)c(C)cc1NC(=O)Nc1cc(C)c(N=Nc2cc(S(=O)(=O)O)cc3cc(S(=O)(=O)O)cc(O)c23)cc1OC [SST0597]
Gene Expression (% mRNA vs. control) HPSE-1 [1]: ∼ 100%
inhibition at 10 µM [2]: > 90%
pEC50 [3]: < 5.00
pEC50 [4]: < 5.00
pEC50 [5]: < 5.00
inhibition at 10 µM [6]: < 50%
Adhesion Assay (%) U87MG [7]: ∼ 23%
Adhesion Assay (%) HT1080 [8]: ∼ 85%
Gene Expression (% mRNA vs. control) FGF-2 [9]: ∼ 82%
Gene Expression (% mRNA vs. control) VEGF [10]: ∼ 100%
Gene Expression (% mRNA vs. control) MMP-9 [11]: ∼ 69%
Gene Expression (% mRNA vs. control) FGF-1 [12]: ∼ 100%
Invasion Assay Inhibition (%) U2OS [13]: -
